System: patients with chronic constipation
Assay: Clinical trial, primary efficacy: mean increase of 1 or more CSBM/week over baseline after 4 weeks of treatment (responders), by subgroup and genotype
Type: in vivo, human
Details: for % Responders: 6-mg bid
Protocol: Introduction. A clinical trial was performed to evaluate the efficacy of tegaserod (Zelmac®/Zelnorm™) at 6 mg bid (12 mg/day) or 2 mg bid (4 mg/day) vs. placebo by measuring the number of complete spontaneous bowel movements (CSBM) during the first 4 weeks of treatment. Secondary objectives included evaluating the number of CSBM during the entire 12-week treatment period, bowel habits, laxative use, and safety and tolerability issues. The clinical trial design consisted of a 2-week baseline period without medication, a 12-week, randomized, double-blind, placebo-controlled treatment period, and a 4-week withdrawal period without study medication. As part of the clinical trial, DNA was collected from patients at screening for pharmacogenetic analysis to evaluate genetic polymorphisms relating to drug targets and disease aetiology.
Samples. A total 1348 patients were randomized as the intent-to-treat (ITT) population. Blood samples from these patients were collected at the time of patient screening and DNA was extracted using the PUREGENE™ DNA Isolation Kit (D-50K). Of these, samples from 738 randomized patients had good quality genotype data for at least half of the 55 SNPs evaluated.
Clinical assessments. […] The primary efficacy endpoint evaluated was the increase of 1 or more CSBM/week over baseline after 4 weeks of treatment. A secondary endpoint evaluated in this genotyping study was RESP12, the increase of 1 of more CSBM/week over baseline after 12 weeks of treatment. Patients were classified as responders if they met these criteria and had completed at least 7 days of treatment. Additional secondary efficacy assessments were evaluated based on the weekly diary assessments, such as bothersome constipation, bothersome abdominal pain, and satisfaction with bowel habits at the end of the 12-week treatment period (using the baseline value as a co-variant for analysis).
Genotyping. A total of 61 polymorphisms in 23 candidate genes were selected for analysis. Genotyping was performed using the TaqMan® technology for most of the assays, while a few were performed in-house using the Third Wave Technologies Invader Assay technique (see TABLE 2 for assay IDs for all evaluated SNPs). Of the 61 SNPs genotyped, 55 yielded good quality, polymorphic genotypes for use in further evaluation.
Statistical analysis. Statistical analysis was performed using SAS version 8.2 (The SAS Institute, Cary, N.C., USA). Analysis methods included Fisher's Exact tests, analysis of Covariance (ANCOVA), logistic regression, and Mantel-Haenzel tests to determine odds ratios and 95% confidence intervals, with significance established at p<0.05. Calculation of linkage disequilibrium was performed using the GOLD (graphical overview of linkage disequilibrium) method described by Abecasis & Cookson, Bioinformatics 16: 182-3 (2000).
Demographic comparisons. TABLE 3 presents the demographic breakdown of the patients in the overall clinical study and those included in this genotype analysis. Distributions were similar between the genotype population and the total patient population. […] Based on these findings, it was decided to limit analysis to the Caucasian population, which accounted for nearly 90% of all patients, to prevent a confounding effect of race on subsequent genotype analyses. Furthermore, the analysis was also limited to those intent-to-treat patients that were treated with tegaserod or placebo for at least 7 days (total of 635 patients).
Comparison of overall response rates. TABLE 4 presents the overall response for the primary efficacy endpoint (a mean increase in 1 or more CSBM/week over baseline after 4 weeks) for tegaserod 6-mg bid compared with placebo for both the overall patient population and the subgroup of patients for which we had genotype data (all races and Caucasians only). […]

With `[H]/N=C(/NCCCCC)N/N=C/c1c[nH]c2ccc(OC)cc12` [tegaserod, Tegaserod] the “% Responders” value (4 weeks, All Caucasians (ITT, >=7 days), Age <65, M + F) was 46%, the “% Responders” value (4 weeks, All Caucasians (ITT, >=7 days), Age >=65, M + F) was 33% and the “% Responders” value (4 weeks, All Caucasians (ITT, >=7 days), Age All, Female) was 46%. The “% Responders” value (4 weeks, All Caucasians (ITT, >=7 days), Age All, M + F) was 45%, the “% Responders” value (4 weeks, All Caucasians (ITT, >=7 days), Age All, Male) was 37% and the “% Responders” value (4 weeks, All genotyped (ITT, >=7 days), Age <65, M + F) was 45%. For the same compound, the “% Responders” value (4 weeks, All genotyped (ITT, >=7 days), Age >=65, M + F) was 50%, the “% Responders” value (4 weeks, All genotyped (ITT, >=7 days), Age All, Female) was 45% and the “% Responders” value (4 weeks, All genotyped (ITT, >=7 days), Age All, M + F) was 46%. The “% Responders” value (4 weeks, All genotyped (ITT, >=7 days), Age All, Male) was 48%, the “% Responders” value (4 weeks, All patients (ITT, >=7 days), Age <65, M + F) was 45% and the “% Responders” value (4 weeks, All patients (ITT, >=7 days), Age >=65, M + F) was 35%. For the same compound, the “% Responders” value (4 weeks, All patients (ITT, >=7 days), Age All, Female) was 45%, the “% Responders” value (4 weeks, All patients (ITT, >=7 days), Age All, M + F) was 44% and the “% Responders” value (4 weeks, All patients (ITT, >=7 days), Age All, Male) was 36%. The “% Responders” value (4 weeks, Caucasians genotyped (ITT, >=7 days), Age <65, M + F, all genotypes) was 46%, the “% Responders” value (4 weeks, Caucasians genotyped (ITT, >=7 days), Age >=65, M + F, all genotypes) was 47% and the “% Responders” value (4 weeks, Caucasians genotyped (ITT, >=7 days), Age All, Female, all genotypes) was 45%. The “% Responders” value (4 weeks, Caucasians genotyped (ITT, >=7 days), Age All, M + F, all genotypes) was 46%, the “% Responders” value (4 weeks, Caucasians genotyped (ITT, >=7 days), Age All, Male, all genotypes) was 52% and the “% Responders” value (4 weeks, ITT Caucasians >=7 days, 0 of 14 SNPs) was 32%. For the same compound, the “% Responders” value (4 weeks, ITT Caucasians >=7 days, >=1 of 14 SNPs) was 53%, the “% Responders” value (4 weeks, ITT Caucasians >=7 days, AQP3 (PG ID 1838) genotype CC) was 43% and the “% Responders” value (4 weeks, ITT Caucasians >=7 days, AQP3 (PG ID 1838) genotype CG) was 47%. The “% Responders” value (4 weeks, ITT Caucasians >=7 days, AQP3 (PG ID 1838) genotype GG) was 71%, the “% Responders” value (4 weeks, ITT Caucasians >=7 days, Female (All ages), 0 of the 12 SNPs) was 33% and the “% Responders” value (4 weeks, ITT Caucasians >=7 days, Female (All ages), 1-12 of the 12 SNPs) was 59%. For the same compound, the “% Responders” value (4 weeks, ITT Caucasians >=7 days, HTR3B (PG ID 3755) genotype AA) was 46%, the “% Responders” value (4 weeks, ITT Caucasians >=7 days, HTR3B (PG ID 3755) genotype AC) was 44% and the “% Responders” value (4 weeks, ITT Caucasians >=7 days, HTR3B (PG ID 3755) genotype CC) was 67%. For the same compound, the “% Responders” value (4 weeks, ITT Caucasians >=7 days, HTR4 (PG ID 1746) genotype CC) was 42%, the “% Responders” value (4 weeks, ITT Caucasians >=7 days, HTR4 (PG ID 1746) genotype CT) was 44% and the “% Responders” value (4 weeks, ITT Caucasians >=7 days, HTR4 (PG ID 1746) genotype TT) was 75%. The “% Responders” value (4 weeks, ITT Caucasians >=7 days, HTR4 (PG ID 3743) genotype AA) was 43%, the “% Responders” value (4 weeks, ITT Caucasians >=7 days, HTR4 (PG ID 3743) genotype AC) was 46% and the “% Responders” value (4 weeks, ITT Caucasians >=7 days, HTR4 (PG ID 3743) genotype CC) was 78%. The “% Responders” value (4 weeks, ITT Caucasians >=7 days, HTR4 (PG ID 3747) genotype AA) was 43%, the “% Responders” value (4 weeks, ITT Caucasians >=7 days, HTR4 (PG ID 3747) genotype AT) was 45% and the “% Responders” value (4 weeks, ITT Caucasians >=7 days, HTR4 (PG ID 3747) genotype TT) was 70%. For the same compound, the “% Responders” value (4 weeks, ITT Caucasians >=7 days, HTR4 (PG ID 3753) genotype CC) was 43%, the “% Responders” value (4 weeks, ITT Caucasians >=7 days, HTR4 (PG ID 3753) genotype CT) was 44% and the “% Responders” value (4 weeks, ITT Caucasians >=7 days, HTR4 (PG ID 3753) genotype TT) was 75%. For the same compound, the “% Responders” value (4 weeks, ITT Caucasians >=7 days, HTR4 (PG ID 3754) genotype AA) was 46%, the “% Responders” value (4 weeks, ITT Caucasians >=7 days, HTR4 (PG ID 3754) genotype AT) was 42% and the “% Responders” value (4 weeks, ITT Caucasians >=7 days, HTR4 (PG ID 3754) genotype TT) was 67%. The “% Responders” value (4 weeks, ITT Caucasians >=7 days, HTR4 (PG ID 3756) genotype AA) was 39%, the “% Responders” value (4 weeks, ITT Caucasians >=7 days, HTR4 (PG ID 3756) genotype AC) was 46% and the “% Responders” value (4 weeks, ITT Caucasians >=7 days, HTR4 (PG ID 3756) genotype CC) was 71%. For the same compound, the “% Responders” value (4 weeks, ITT Caucasians >=7 days, M + F (<65), 0 of the 12 SNPs) was 33%, the “% Responders” value (4 weeks, ITT Caucasians >=7 days, M + F (<65), 1-12 of the 12 SNPs) was 61% and the “% Responders” value (4 weeks, ITT Caucasians >=7 days, M + F (>=65), 0 of the 12 SNPs) was 14%. For the same compound, the “% Responders” value (4 weeks, ITT Caucasians >=7 days, M + F (>=65), 1-12 of the 12 SNPs) was 70%, the “% Responders” value (4 weeks, ITT Caucasians >=7 days, M + F (All ages), 0 of the 12 high responder SNPs) was 31% and the “% Responders” value (4 weeks, ITT Caucasians >=7 days, M + F (All ages), 1-12 of the 12 high responder SNPs) was 62%. For the same compound, the “% Responders” value (4 weeks, ITT Caucasians >=7 days, MLN (PG ID 1783) genotype CC) was 47%, the “% Responders” value (4 weeks, ITT Caucasians >=7 days, MLN (PG ID 1783) genotype CT) was 40% and the “% Responders” value (4 weeks, ITT Caucasians >=7 days, MLN (PG ID 1783) genotype TT) was 63%. The “% Responders” value (4 weeks, ITT Caucasians >=7 days, Male (All ages), 0 of the 12 SNPs) was 20%, the “% Responders” value (4 weeks, ITT Caucasians >=7 days, Male (All ages), 1-12 of the 12 SNPs) was 82% and the “% Responders” value (4 weeks, ITT Caucasians >=7 days, SCNN1A (PG ID 3806) genotype GG) was 62%. The “% Responders” value (4 weeks, ITT Caucasians >=7 days, SCNN1A (PG ID 3806) genotype GT) was 47%, the “% Responders” value (4 weeks, ITT Caucasians >=7 days, SCNN1A (PG ID 3806) genotype TT) was 36% and the “% Responders” value (4 weeks, ITT Caucasians >=7 days, SLC12A2 (PG ID 1842) genotype AA) was 69%. The “% Responders” value (4 weeks, ITT Caucasians >=7 days, SLC12A2 (PG ID 1842) genotype AG) was 27%, the “% Responders” value (4 weeks, ITT Caucasians >=7 days, SLC12A2 (PG ID 1842) genotype GG) was 51% and the “% Responders” value (4 weeks, ITT Caucasians >=7 days, SLC12A2 (PG ID 3801) genotype CC) was 75%. For the same compound, the “% Responders” value (4 weeks, ITT Caucasians >=7 days, SLC12A2 (PG ID 3801) genotype CT) was 27%, the “% Responders” value (4 weeks, ITT Caucasians >=7 days, SLC12A2 (PG ID 3801) genotype TT) was 52% and the “% Responders” value (4 weeks, ITT Caucasians >=7 days, TPH1 (PG ID 1756) genotype GG) was 51%. The “% Responders” value (4 weeks, ITT Caucasians >=7 days, TPH1 (PG ID 1756) genotype GT) was 48%, the “% Responders” value (4 weeks, ITT Caucasians >=7 days, TPH1 (PG ID 1756) genotype TT) was 36% and the “% Responders” value (4 weeks, ITT Caucasians >=7 days, TPH1 (PG ID 3784) genotype CC) was 32%. The “% Responders” value (4 weeks, ITT Caucasians >=7 days, TPH1 (PG ID 3784) genotype CT) was 49%, the “% Responders” value (4 weeks, ITT Caucasians >=7 days, TPH1 (PG ID 3784) genotype TT) was 50% and the rate of response (lower dose 2-mg bid, 4 weeks, compared with placebo and with 6-mg bid) was “the response was less than that seen for the 6-mg bid dose”. The Odds Ratio (the two other genotyped SCNN1A SNPs (near 5' end and near 3' end)) was over 3.5.
